Data taken from patent US20190328784A1, “CHIMERIC ANTIGEN RECEPTORS (CARS) SPECIFIC FOR MUC1 AND METHODS FOR THEIR USE” (Poseida Therapeutics, Inc., priority 2016, published 2019).
Entries after “also recorded” stand apart in the source; their conditions may differ. Read-outs that look alike come from different tables or passages of the source.

T1: cleaved, non-shed MUC1-C (Homo sapiens, UniProt P15941)
T1 construct: expressed in transfected cells; host or cells: K562, Raji and RPMI8226 cells modified to express MUC1-C
T1 sequence (P15941 with tags, fused parts or gaps): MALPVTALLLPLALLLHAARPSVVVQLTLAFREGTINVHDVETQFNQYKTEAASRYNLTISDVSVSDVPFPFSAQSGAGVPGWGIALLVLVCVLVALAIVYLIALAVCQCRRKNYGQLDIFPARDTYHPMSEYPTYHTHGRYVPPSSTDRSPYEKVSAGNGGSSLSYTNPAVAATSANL

B1: K2B-HL: MUC1 scFv CAR; single chain antibody SEQ ID NO: 10 (protein)
scFv: QVQLKESGPGLVAPSQSLSMTCTVSGFSLTTYGVHWVRQPPGKGLEWLVVIWSDGSTTYNSPLKSRLSISRDNSKSQVFLKMNSLQADDTAIYYCAKNYLGSLDYWGQGTSVTVSSGGGGSGGGGSGGGGSDVVLTQTPLSLPVSLGDQASISCRSSQSLVHNNGDTYLHWYLQKPGQSPKLLIYKVSNRFSGVPDRFSGSGSGTDFTFKISRVEAEDLGVYFCSQTTHVPLTFGAGTKLELK
modifications: left off: a dimerising Fc or GST
B2: F1C-HL: MUC1 scFv CAR; single chain antibody SEQ ID NO: 22 (protein)
scFv: QITLKESGPGILQPSQTLSLTCSFSGFSLSTSGMGVSWIRQPSGKGLEWLSHIYWDDDKRYNPSLKSRLSISKDTSRNQVFLKITSVDTADTATYYCAPGVSSWFPYWGPGTLVTVSAGGGGSGGGGSGGGGSSIVMTQTPKFLPVSAGDRVTVTCKASQSVGNYVAWYQQKPGQSPKLLIYFASNRYSGVPDRFTGSGSGTDFTFTISSVQVEDLAVYFCQQHYIFPYTFGSGTKLEIK
modifications: left off: a dimerising Fc or GST

Tests used:
[1] = tested on: cells; conditions: cited from earlier work
[2] = cited from earlier work
[3] = tested on: Human pan T-cells; assay: iC9 safety switch test: modified T cells incubated 24 hours with AP1903, viability by 7-AAD flow cytometry; type: cell-based; conditions: 24 hours incubation, 0-1000 nM tested
From the text: FIG. 7 is a series of flow cytometry plots depicting the abundance of cells moving from an area of live cells (the gated lower right quadrant) to an area populated by apoptotic cells (the upper left quadrant) as a function of increasing dosage of the induction agent (AP1903) in cells modified to express a therapeutic agent (a CARTyrin) alone or in combination with an inducible caspase polypeptide of the disclosure (encoded by an iC9 construct (also known as a “safety switch”) introduced into cells by a piggyBac (PB) transposase) at day 12 post nucleofection. […]
FIG. 9 is a pair of graphs depicting a quantification of the aggregated results shown either in FIG. 7 (left graph) or FIG. 8 (right graph). […]
To test the iC9 safety switch, each of the four modified T cells were incubated for 24 hours with 0, 0.1 nM, 1 nM, 10 nM, 100 nM or 1000 nM AP1903 (an induction agent for […]). Viability was assessed by flow cytometry using 7-aminoactinomycin D (7-AAD), a fluorescent intercalator, as a marker for cells undergoing apoptosis.

[4] = tested on: cells; assay: AP1903 amount needed in vitro for effective signaling of cells; type: cell-based; conditions: conversion with 1600 Da MW
Procedure: The fixed dose of AP1903 for injection used, for example, may be 0.4 mg/kg intravenously infused over 2 hours. The amount of AP1903 needed in vitro for effective signaling of cells is 10-100 nM (1600 Da MW). This equates to 16-160 μg/L or ^˜0.016-1.6 μg/kg (1.6-160 μg/kg). Doses up to 1 mg/kg were well-tolerated in the Phase I study of AP1903 described above. Therefore, 0.4 mg/kg may be a safe and effective dose of AP1903 for this Phase I study in combination with the therapeutic cells.

[5] = biological target: T2, full length MUC1 (Homo sapiens, UniProt P15941); assay: MUC1-scFv CAR function/epitope assay (degranulation, CD107a+ cells); type: cell-based; conditions: cells expressing full-length MUC1
T2 construct: expressed in transfected cells; host or cells: K562, Raji and RPMI8226 cells
Procedure: (§1) FIG. 14 is a graph depicting a MUC1-scFv CAR function assay. […] MUC1-scFv function is measured by the extent of degranulation of the cells in each condition contacted with the MUC1-scFv along the X-axis. Degranulation was measured as the percentage of total cells that were CD107a-positive (CD107a+).
(§2) The results of a functional assay are provided in the graph wherein MUC1-C scFv-CAR function was measured by the extent of degranulation of the cells in each condition contacted with the MUC1-scFv along the X-axis. Degranulation was measured as the percentage of total cells that were CD107a-positive (CD107a+). The chart summarizes the relative activity of each MUC1-C scFv-CAR during the functional assay.
(§3) The function of each of the MUC1-scFv CARs described in this example was assayed in K562 cells, Raji cells and RPMI8226 cells (“8226”) cells in either unmodified conditions or following transfection with MUC1 constructs (either full-length or MUC1-C) to generate modified K562 cells, modified Raji cells and modified 8226 cells. Function of each of the MUC1-scFv CARs was measured by the CAR's ability to degranulate each cell type. Degranulation was measured by the percent of total cells that express […] (percentage of […] cells).
(§4) The F1C-HL, M1A-LH and K2B-HL MUC1-scFv CARs were further tested to determine epitope binding.

[6] = biological target: T1, cleaved, non-shed MUC1-C; assay: as above; type: cell-based; conditions: cells that received the extracellular MUC1-C construct
Procedure: as §1, §2, §3, §4

[7] = tested on: unmodified cells; assay: as above; type: cell-based, human
Procedure: as §3, §4

[8] = tested on: MUC1 expressed on activated T cells; assay: as above; type: cell-based, human
Procedure: as §2
As an initial study, MUC1 expression was assessed in different cell types (see FIG. 13). Cells included in this study: K562 cells (immortalized human chronic myelogenous leukemia cells), Raji cells (human hematopoietic cell line used as a model of cancer), Raji cells modified to express MUC1-C, activated T cells and RPMI8226 cells (human peripheral blood B cell plasmacytoma/myeloma cell line). MUC1 expression in each of these cells was assessed by staining with an anti-MUC1-N antibody.

T2 sequence (P15941 24-1255): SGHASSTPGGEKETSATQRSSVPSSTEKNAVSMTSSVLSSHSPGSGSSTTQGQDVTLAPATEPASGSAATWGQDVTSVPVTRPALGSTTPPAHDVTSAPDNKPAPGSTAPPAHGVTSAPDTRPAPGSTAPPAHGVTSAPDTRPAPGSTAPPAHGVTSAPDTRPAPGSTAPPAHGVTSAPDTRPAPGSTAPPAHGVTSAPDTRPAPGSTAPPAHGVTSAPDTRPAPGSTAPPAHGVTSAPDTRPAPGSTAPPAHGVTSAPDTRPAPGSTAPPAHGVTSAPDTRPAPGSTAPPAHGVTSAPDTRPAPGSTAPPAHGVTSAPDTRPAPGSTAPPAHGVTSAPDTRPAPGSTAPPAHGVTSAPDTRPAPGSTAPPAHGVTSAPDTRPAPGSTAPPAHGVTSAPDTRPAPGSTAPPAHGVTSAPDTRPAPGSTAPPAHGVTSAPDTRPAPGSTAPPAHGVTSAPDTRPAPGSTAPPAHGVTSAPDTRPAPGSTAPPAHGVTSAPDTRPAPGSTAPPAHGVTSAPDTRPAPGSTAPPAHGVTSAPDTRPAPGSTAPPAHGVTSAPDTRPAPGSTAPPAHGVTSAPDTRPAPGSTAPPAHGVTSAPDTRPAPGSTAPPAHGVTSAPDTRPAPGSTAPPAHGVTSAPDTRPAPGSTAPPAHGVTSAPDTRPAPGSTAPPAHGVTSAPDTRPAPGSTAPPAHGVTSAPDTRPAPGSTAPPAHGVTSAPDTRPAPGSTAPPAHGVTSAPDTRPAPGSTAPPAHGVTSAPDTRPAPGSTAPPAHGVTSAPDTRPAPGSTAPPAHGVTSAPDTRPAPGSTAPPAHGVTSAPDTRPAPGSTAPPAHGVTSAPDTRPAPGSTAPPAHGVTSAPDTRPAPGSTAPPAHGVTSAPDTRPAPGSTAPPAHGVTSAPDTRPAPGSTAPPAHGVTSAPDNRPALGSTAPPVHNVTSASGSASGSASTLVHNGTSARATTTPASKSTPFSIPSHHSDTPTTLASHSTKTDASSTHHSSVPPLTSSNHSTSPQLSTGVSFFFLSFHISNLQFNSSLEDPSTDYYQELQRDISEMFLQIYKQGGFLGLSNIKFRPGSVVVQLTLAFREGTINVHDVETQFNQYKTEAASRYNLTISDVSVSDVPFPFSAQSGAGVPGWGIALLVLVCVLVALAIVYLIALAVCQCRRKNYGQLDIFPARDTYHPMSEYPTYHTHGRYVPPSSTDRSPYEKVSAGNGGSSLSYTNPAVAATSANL

| Molecule | amount needed in vitro for effective signaling of cells [1] | AP1903 plasma levels versus dose ([2]; 0.01-1.0 mg/kg dose range) | plasma levels as % of maximal concentration ([2]; 0.5 hours post-dose) | plasma levels as % of maximal concentration ([2]; 2 hours post-dose) | plasma levels as % of maximal concentration ([2]; 10 hours post-dose) | well-tolerated doses ([2]; Phase I study of AP1903) | mean Cmax ([2]; single doses 0.01-1.0 mg/kg infused IV over 2 hours, 24 healthy volunteers, plasma) | concentration at which AP1903 induces apoptosis (lowest of the study) [3] | amount needed for effective signaling of cells, converted [4] | amount needed for effective signaling of cells, converted to dose [4] | CAR reactivity / binding (degranulation) [5] | CAR reactivity / binding (degranulation) [6] | CAR binding (degranulation) [7] | CAR reactivity (degranulation) [8] |
| --- | --- | --- | --- | --- | --- | --- | --- | --- | --- | --- | --- | --- | --- | --- |
| CC[C@H](C(=O)N1CCCC[C@H]1C(=O)O[C@H](CCc1ccc(OC)c(OC)c1)c1cccc(OCC(=O)NCCNC(=O)COc2cccc([C@@H](CCc3ccc(OC)c(OC)c3)OC(=O)[C@@H]3CCCCN3C(=O)[C@@H](CC)c3cc(OC)c(OC)c(OC)c3)c2)c1)c1cc(OC)c(OC)c(OC)c1 (relative stereo) [AP1903, 2-Piperidinecarboxylic acid, 1-[(2S)-1-oxo-2-(3,4,5-trimethoxyphenyl)butyl]−, 1,2-ethanediylbis[imino(2-oxo-2,1-ethanediyl)oxy-3,1-phenylene[(1R)-3-(3,4-dimethoxyphenyl)propylidene]]ester, [2S-[1(R*),2R*[S*[S*[1 (R*),2R*]]]]]-(9C1)] | 10 to 100 nM | directly proportional to dose | approximately 18% | ~7% | ~1% | up to 1 mg/kg | 10 to 1275 ng/mL | ≤ 0.1 nM | 16 to 160 µg/L | 0.016 to 1.6 µg/kg |  |  |  |  |
| B1 |  |  |  |  |  |  |  |  |  |  | not full length MUC1 | only reacts against cleaved, non-shed MUC1-C; also recorded: specifically binds |  |  |
| B2 |  |  |  |  |  |  |  |  |  |  | reacts against full length MUC1; also recorded: binds | binds | binds | including that expressed on activated T cells |
